The text below walks through data of article PMC11994375, “In vitro activation of the CB1 receptor by the semi‐synthetic cannabinoids hexahydrocannabinol (HHC), hexahydrocannabinol acetate (HHC‐O) and hexahydrocannabiphorol (HHC‐P)” (Drug Testing and Analysis, 2024).

Some results are limits rather than exact numbers.

One test deals with T1, human CB1 receptor (Homo sapiens, UniProt P21554).
T1 construct: gene CNR1; recombinant receptor in CHO-K1 AequoScreen cells (aequorin luminescence line, Revvity ES-110-AF)
T1 sequence (P21554 whole entry): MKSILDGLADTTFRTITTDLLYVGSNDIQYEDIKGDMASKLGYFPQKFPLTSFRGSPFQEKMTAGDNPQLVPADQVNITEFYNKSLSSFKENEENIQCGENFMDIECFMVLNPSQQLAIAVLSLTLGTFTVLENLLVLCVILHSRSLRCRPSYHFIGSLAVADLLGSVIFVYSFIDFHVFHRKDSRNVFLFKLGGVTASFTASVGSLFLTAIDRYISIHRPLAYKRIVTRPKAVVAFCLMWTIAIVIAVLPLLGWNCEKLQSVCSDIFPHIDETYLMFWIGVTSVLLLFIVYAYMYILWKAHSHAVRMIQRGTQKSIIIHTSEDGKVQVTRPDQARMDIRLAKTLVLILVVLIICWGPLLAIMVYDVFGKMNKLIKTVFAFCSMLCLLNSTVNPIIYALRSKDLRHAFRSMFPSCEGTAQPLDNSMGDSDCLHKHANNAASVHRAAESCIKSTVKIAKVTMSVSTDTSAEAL
In words: aequorin luminescence agonist assay, CHO-K1 cells. Format: cell-based. The settings on record: read-out: EC50 (95% CI). From the text:
aequorin luminescence agonist assay, CHO-K1 cells on human CB1 receptor
Usually EC50 stands for the concentration at which the effect is half-maximal. Regarding `CCCCCCCc1cc(O)c2c(c1)OC(C)(C)[C@@H]1CC[C@@H](C)C[C@@H]21` [(9R)-HHC-P], the EC50 amounted to 0.0444 µM.
On to `CCCCCc1cc(O)c2c(c1)OC(C)(C)[C@@H]1CC[C@@H](C)C[C@@H]21` [(9R)-HHC], for which the EC50 came out at 0.101 µM.
On to `CCCCCc1cc(OC(C)=O)c2c(c1)OC(C)(C)[C@@H]1CC[C@@H](C)C[C@@H]21` [(9R)-HHC-O], for which the EC50 is over 33 µM.
Still for that read-out and setting: under `CCCCCCCc1cc(O)c2c(c1)OC(C)(C)[C@@H]1CC[C@H](C)C[C@@H]21` [(9S)-HHC-P] stands 0.134 µM.
Same read-out and setting: to `CCCCCc1cc(O)c2c(c1)OC(C)(C)[C@@H]1CC[C@H](C)C[C@@H]21` [(9S)-HHC] belongs 1.19 µM.
Regarding `CCCCCn1cc(C(=O)c2cccc3ccccc23)c2ccccc21` [JWH-018, reference compound], the EC50 was 0.0225 µM.

Another test addresses T1, human CB1 receptor. In words: aequorin luminescence agonist assay, CHO-K1 cells. Format: cell-based. Particulars: agonist mode, tested up to 60 uM; silanized plastic, glass vials; 0.05% BSA assay medium.
As to `CCCCCc1cc(OC(C)=O)c2c(c1)OC(C)(C)[C@@H]1CC[C@H](C)C[C@@H]21` [(9S)-HHC-O], the EC50 n.d. result is given as “(9S)‐HHC‐O did not activate the CB1 receptor”.
